Results reported in patent publication US6339045B1, “N-(unsubstituted or substituted)-4-substituted-6-(unsubstituted or substituted)phenoxy-2-pyridinecarboxamides or thiocarboxamides, processes for producing the same, and herbicides” (Kureha Kagaku Kogyo Kabushiki Kaisha, priority 1995, dated 2002).

Key:
Test in all cases: Herbicidal effect by foliage and soil treatment
Type in all cases: in vivo
Conditions in all cases: 10 g ai/10a, evaluated after 14 days
[1] = test system: common chickweed (Stellaria media)
Procedure, shortened: (§1)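 Post-emergence spray, cotyledon to bifoliate stage; Tween 20/water vehicle, fixed dose per area; greenhouse 19–25 °C; 14 d; visual growth rating vs untreated.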

[2] = test system: common blackjack (Bidens pilosa)
Procedure, shortened: as §1

[3] = test system: wild chamomile (Matricaria chamomilla)
Procedure, shortened: as §1

[4] = test system: ivyleafspeedwell (Veronica hederaefolia)
Procedure, shortened: as §1

[5] = test system: black nightshade (Solanum nigrum)
Procedure, shortened: as §1

[6] = test system: kediock (Sinapis arvensis)
Procedure, shortened: as §1

[7] = test system: cleavers (Galium aparine)
Procedure, shortened: as §1

[8] = test system: velvetleaf (Abutilon theophrasti)
Procedure, shortened: as §1

[9] = test system: field bindweed (Convolvulus arvensis)
Procedure, shortened: as §1

[10] = test system: redroot pigweed (Amaranthus retroflexus)
Procedure, shortened: as §1

[11] = test system: sicklepod (Cassia obtusifolia)
Procedure, shortened: as §1

| Structure (SMILES) | herbicidal activity rating, SM (Stellaria media) [1] | herbicidal activity rating, BP (Bidens pilosa) [2] | herbicidal activity rating, MC (Matricaria chamomilla) [3] | herbicidal activity rating, VH (Veronica hederaefolia) [4] | herbicidal activity rating, SN (Solanum nigrum) [5] | herbicidal activity rating, SA (Sinapis arvensis) [6] | herbicidal activity rating, GA (Galium aparine) [7] | herbicidal activity rating, AT (Abutilon theophrasti) [8] | herbicidal activity rating, CA (Convolvulus arvensis) [9] | herbicidal activity rating, AR (Amaranthus retroflexus) [10] | herbicidal activity rating, CO (Cassia obtusifolia) [11] |
| --- | --- | --- | --- | --- | --- | --- | --- | --- | --- | --- | --- |
| COc1cc(Oc2cccc(C(F)(F)F)c2)nc(C(=O)N2CC2C)c1 (stereo not drawn) [Compound I-300, 4-methoxy-2-{N-(2-methylaziridinyl)carbonyl}-6-{3-(trifluoromethyl)phenoxy}-2-pyridine] | 5 (percentage of weeds killed was not less than 80%) | 5 (percentage of weeds killed was not less than 80%) | 2 (percentage of weeds killed was not less than 20% and less than 40%) | 5 (percentage of weeds killed was not less than 80%) | 5 (percentage of weeds killed was not less than 80%) | 5 (percentage of weeds killed was not less than 80%) | 5 (percentage of weeds killed was not less than 80%) | 4 (percentage of weeds killed was not less than 60% and less than 80%) | 4 (percentage of weeds killed was not less than 60% and less than 80%) | 5 (percentage of weeds killed was not less than 80%) | 5 (percentage of weeds killed was not less than 80%) |
| COc1cc(Oc2cccc(C(F)(F)F)c2)nc(C(=O)NCCF)c1 [Compound I-74] | 5 (percentage of weeds killed was not less than 80%) | 5 (percentage of weeds killed was not less than 80%) | 5 (percentage of weeds killed was not less than 80%) | 5 (percentage of weeds killed was not less than 80%) | 5 (percentage of weeds killed was not less than 80%) | 5 (percentage of weeds killed was not less than 80%) | 5 (percentage of weeds killed was not less than 80%) | 5 (percentage of weeds killed was not less than 80%) | 5 (percentage of weeds killed was not less than 80%) | 5 (percentage of weeds killed was not less than 80%) | 5 (percentage of weeds killed was not less than 80%) |
| CCOc1cc(Oc2cccc(C(F)(F)F)c2)nc(C(=O)NC(C)C)c1 [Compound I-59] | 5 (percentage of weeds killed was not less than 80%) | 3 (percentage of weeds killed was not less than 40% and less than 60%) | 4 (percentage of weeds killed was not less than 60% and less than 80%) | 5 (percentage of weeds killed was not less than 80%) | 5 (percentage of weeds killed was not less than 80%) | 5 (percentage of weeds killed was not less than 80%) | 5 (percentage of weeds killed was not less than 80%) | 4 (percentage of weeds killed was not less than 60% and less than 80%) | 4 (percentage of weeds killed was not less than 60% and less than 80%) | 5 (percentage of weeds killed was not less than 80%) | 5 (percentage of weeds killed was not less than 80%) |
| CCCNC(=O)c1cc(OC)cc(Oc2cccc(C(F)(F)F)c2)n1 [Compound I-33, N-(n-propyl)-4-methoxy-6-{3-(trifluoromethyl)phenoxy}-2-pyridine carboxamide] | 5 (percentage of weeds killed was not less than 80%) | 5 (percentage of weeds killed was not less than 80%) | 5 (percentage of weeds killed was not less than 80%) | 5 (percentage of weeds killed was not less than 80%) | 5 (percentage of weeds killed was not less than 80%) | 5 (percentage of weeds killed was not less than 80%) | 5 (percentage of weeds killed was not less than 80%) | 5 (percentage of weeds killed was not less than 80%) | 4 (percentage of weeds killed was not less than 60% and less than 80%) | 5 (percentage of weeds killed was not less than 80%) | 5 (percentage of weeds killed was not less than 80%) |
| COc1cc(Oc2cccc(C(F)(F)F)c2)nc(C(=O)NCC(F)(F)F)c1 [Compound I-82] | 5 (percentage of weeds killed was not less than 80%) | 4 (percentage of weeds killed was not less than 60% and less than 80%) | 5 (percentage of weeds killed was not less than 80%) | 5 (percentage of weeds killed was not less than 80%) | 5 (percentage of weeds killed was not less than 80%) | 5 (percentage of weeds killed was not less than 80%) | 5 (percentage of weeds killed was not less than 80%) | 5 (percentage of weeds killed was not less than 80%) | 5 (percentage of weeds killed was not less than 80%) | 5 (percentage of weeds killed was not less than 80%) | 5 (percentage of weeds killed was not less than 80%) |
| CCN(C)C(=O)c1cc(OC)cc(Oc2cccc(C(F)(F)F)c2)n1 [Compound I-201] | 5 (percentage of weeds killed was not less than 80%) | 2 (percentage of weeds killed was not less than 20% and less than 40%) | 2 (percentage of weeds killed was not less than 20% and less than 40%) | 5 (percentage of weeds killed was not less than 80%) | 5 (percentage of weeds killed was not less than 80%) | 5 (percentage of weeds killed was not less than 80%) | 5 (percentage of weeds killed was not less than 80%) | 4 (percentage of weeds killed was not less than 60% and less than 80%) | 5 (percentage of weeds killed was not less than 80%) | 5 (percentage of weeds killed was not less than 80%) | 5 (percentage of weeds killed was not less than 80%) |
